Measured values reported in ChEMBL document CHEMBL1201862, “PubChem BioAssay data set” (2004).
The source made the active and inactive calls.

How the values were obtained:
Hexokinase HKDC1 [1] = target: T1, Hexokinase HKDC1 (Homo sapiens, UniProt Q2TB90); assay: activation of HKDC1 glucose phosphorylation – biochemical, W721R variant, dose response (AID 504730); type: functional
T1 sequence (Q2TB90 whole entry): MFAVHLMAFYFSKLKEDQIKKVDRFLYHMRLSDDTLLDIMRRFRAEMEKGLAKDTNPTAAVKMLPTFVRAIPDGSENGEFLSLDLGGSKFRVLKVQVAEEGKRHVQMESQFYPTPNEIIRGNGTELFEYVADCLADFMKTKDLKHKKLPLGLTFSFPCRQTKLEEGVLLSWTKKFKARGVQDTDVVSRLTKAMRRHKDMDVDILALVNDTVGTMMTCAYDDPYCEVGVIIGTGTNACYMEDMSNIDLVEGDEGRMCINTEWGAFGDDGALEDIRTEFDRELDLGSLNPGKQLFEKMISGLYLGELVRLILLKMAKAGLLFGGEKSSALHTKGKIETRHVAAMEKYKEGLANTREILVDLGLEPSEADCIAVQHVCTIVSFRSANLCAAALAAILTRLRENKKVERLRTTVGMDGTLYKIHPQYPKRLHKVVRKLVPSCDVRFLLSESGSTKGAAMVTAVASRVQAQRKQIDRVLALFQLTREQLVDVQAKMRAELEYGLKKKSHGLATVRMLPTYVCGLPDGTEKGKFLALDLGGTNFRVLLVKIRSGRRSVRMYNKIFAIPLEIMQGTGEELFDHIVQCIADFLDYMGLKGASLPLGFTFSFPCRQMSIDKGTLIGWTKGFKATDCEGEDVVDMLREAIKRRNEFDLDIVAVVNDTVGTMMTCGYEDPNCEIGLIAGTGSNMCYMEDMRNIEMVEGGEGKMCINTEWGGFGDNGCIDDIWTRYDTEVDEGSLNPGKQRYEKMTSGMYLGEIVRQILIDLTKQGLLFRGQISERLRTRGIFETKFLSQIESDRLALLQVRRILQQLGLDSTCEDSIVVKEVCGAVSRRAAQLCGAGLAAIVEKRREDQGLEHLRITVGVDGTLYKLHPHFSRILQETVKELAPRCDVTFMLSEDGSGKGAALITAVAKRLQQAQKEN

fMet-Leu-Phe receptor = target: T2, fMet-Leu-Phe receptor (Homo sapiens, UniProt P21462); assay: formyl peptide receptor binders – dose response (AID 519); type: functional
T2 sequence (P21462 whole entry): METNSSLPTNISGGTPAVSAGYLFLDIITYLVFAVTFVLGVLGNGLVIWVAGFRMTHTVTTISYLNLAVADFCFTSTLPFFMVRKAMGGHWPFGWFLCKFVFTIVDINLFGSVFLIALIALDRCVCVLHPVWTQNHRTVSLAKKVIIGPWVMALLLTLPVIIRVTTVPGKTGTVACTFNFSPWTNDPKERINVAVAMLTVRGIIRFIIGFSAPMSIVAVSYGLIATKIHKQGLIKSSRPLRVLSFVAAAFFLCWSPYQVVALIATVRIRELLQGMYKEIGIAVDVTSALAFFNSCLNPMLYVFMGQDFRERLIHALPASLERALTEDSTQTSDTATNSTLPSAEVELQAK

[2] = luciferase reporter signal suppression in cells – H4 neuroglioma cells, luminescence, dose response (AID 1990); type: functional, cell-based
[3] = alpha-synuclein stem-loop luciferase translation blockers – H4 neuroglioma cells, luminescence, confirmation (AID 1988); type: functional, cell-based
J774.A1 = assay: Confirmation of image-based Screening Assay for Inhibitors of Phagocytosis. [Related pubchem assays (depositor defined):AID1029, AID1643]; type: functional, cell-based; conditions: Mus musculus
T-cell = assay: loss of vesicle association with mouse CD8+ T cells – mouse 2C CD8+ T cells, flow cytometry, dose response (AID 485284); type: functional
[4] = target: T3, Short transient receptor potential channel 4 (Mus musculus, UniProt Q9QUQ5); assay: potentiation of DAMGO-evoked TRPC4 calcium signal – cell-based, HEK293 TRPC4/mu-opioid, Fluo-4 calcium, EC20 DAMGO, dose response (AID 434941); type: functional
T3 sequence (Q9QUQ5 whole entry): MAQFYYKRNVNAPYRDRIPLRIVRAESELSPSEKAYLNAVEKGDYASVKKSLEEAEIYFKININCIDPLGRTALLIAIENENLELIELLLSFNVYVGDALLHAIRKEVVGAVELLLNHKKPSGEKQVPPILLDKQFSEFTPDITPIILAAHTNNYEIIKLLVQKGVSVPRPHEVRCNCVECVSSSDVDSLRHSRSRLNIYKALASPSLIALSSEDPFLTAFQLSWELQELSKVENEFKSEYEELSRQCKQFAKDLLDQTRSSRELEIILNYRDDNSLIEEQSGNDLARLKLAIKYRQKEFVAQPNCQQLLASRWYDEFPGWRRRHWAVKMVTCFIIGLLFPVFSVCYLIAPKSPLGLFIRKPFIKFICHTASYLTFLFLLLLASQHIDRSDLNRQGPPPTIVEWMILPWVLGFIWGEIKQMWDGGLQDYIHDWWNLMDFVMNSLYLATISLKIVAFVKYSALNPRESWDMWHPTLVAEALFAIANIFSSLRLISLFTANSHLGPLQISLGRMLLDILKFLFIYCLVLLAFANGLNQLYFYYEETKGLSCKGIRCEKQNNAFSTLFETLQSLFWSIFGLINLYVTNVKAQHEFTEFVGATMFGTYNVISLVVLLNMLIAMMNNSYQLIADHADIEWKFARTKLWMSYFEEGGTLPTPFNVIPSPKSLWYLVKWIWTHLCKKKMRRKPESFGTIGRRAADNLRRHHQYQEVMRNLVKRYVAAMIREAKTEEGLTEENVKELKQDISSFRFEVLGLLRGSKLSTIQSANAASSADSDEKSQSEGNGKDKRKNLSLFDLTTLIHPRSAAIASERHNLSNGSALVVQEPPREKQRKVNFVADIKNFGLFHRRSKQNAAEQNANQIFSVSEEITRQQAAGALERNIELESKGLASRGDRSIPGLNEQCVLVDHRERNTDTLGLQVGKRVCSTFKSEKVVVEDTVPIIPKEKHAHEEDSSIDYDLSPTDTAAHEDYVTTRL

[5] = target: T4, Tyrosine-protein phosphatase non-receptor type 7 (Homo sapiens, UniProt P35236); type: functional
T4 sequence (P35236 whole entry): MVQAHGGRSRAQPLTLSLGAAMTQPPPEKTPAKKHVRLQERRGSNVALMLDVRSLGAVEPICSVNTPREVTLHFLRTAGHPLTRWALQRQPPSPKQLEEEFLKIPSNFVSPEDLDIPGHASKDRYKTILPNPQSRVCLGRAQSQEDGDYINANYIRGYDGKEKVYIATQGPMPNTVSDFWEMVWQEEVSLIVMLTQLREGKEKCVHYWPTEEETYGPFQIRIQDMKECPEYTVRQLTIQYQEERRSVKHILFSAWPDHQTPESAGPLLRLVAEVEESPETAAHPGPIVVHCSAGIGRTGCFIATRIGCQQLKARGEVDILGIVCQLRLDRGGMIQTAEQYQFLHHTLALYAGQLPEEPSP

[6] = target: T5, Tyrosine-protein phosphatase non-receptor type 22 (Homo sapiens, UniProt Q9Y2R2); type: functional
[7] = target: T5, Tyrosine-protein phosphatase non-receptor type 22; type: functional; remark: listed apart in the source
[8] = target: T6, Runt-related transcription factor 1/Core-binding factor subunit beta (Homo sapiens, UniProt Q01196+Q13951); assay: disruptors of Runt domain/CBFb-SMMHC interaction – biochemical, FRET, Cerulean-Runt, Venus-CBFb-SMMHC, uHTS, […] (AID 1434); type: protein assay
[9] = target: T6, Runt-related transcription factor 1/Core-binding factor subunit beta; assay: Runt domain/CBFb-SMMHC interaction disruptors – biochemical, TR-FRET (AID 1438); type: protein assay
[10] = target: E3 ubiquitin-protein ligase XIAP (Homo sapiens, UniProt P98170); assay: Counter Screen using XIAP-Bir3 for Chemical Antagonists of Bir1/2 domains of IAP-family anti-apoptotic proteins. [Related pubchem assays (depositor defined):AID1018, AID1449, AID1514, AID1638, AID1749, AID1750, AID488957, AID488963]
[11] = target: Eukaryotic translation initiation factor 4H (Homo sapiens, UniProt Q15056); assay: inhibitors of translation initiation factor eIF4H – SAR follow-up (AID 435011); type: functional
[12] = target: Polyadenylate-binding protein 1 (Homo sapiens, UniProt P11940); assay: PABP inhibition in translation initiation, SAR follow-up (AID 435018); type: functional
Hexokinase HKDC1 [13] = target: T1, Hexokinase HKDC1; assay: inhibition of HKDC1 glucose phosphorylation – biochemical, W721R variant, dose response (AID 504729); type: functional
Troponin, cardiac muscle = Troponin, cardiac muscle (Homo sapiens, UniProt P19429+P45379+P63316); assay: Fluorescence-based biochemical high throughput dose response assay for activators of the calcium sensitivity of cardiac Regulated Thin Filaments (RTF). [Related pubchem assays (depositor defined):AID493008, AID493018, AID504382, AID504383]; type: protein-complex assay
[14] = target: Voltage-dependent T-type calcium channel subunit alpha-1H (Homo sapiens, UniProt O95180); assay: human CACNA1H calcium influx blockade – cell-based, synthetic library set 1, calcium flux (AID 493022); type: functional
[15] = target: T4, Tyrosine-protein phosphatase non-receptor type 7; assay: redox-active compounds inhibiting HePTP phosphatase – biochemical, fluorescence, mechanism study (AID 2068); type: functional
Mu-type opioid receptor = Mu-type opioid receptor (Homo sapiens, UniProt P35372); assay: SAR Analysis of Antagonists of the MOR Receptor using an Image-Based Assay - Set 3. [Related pubchem assays (depositor defined):AID1777, AID1785, AID1786, AID1966, AID2133, AID2136, AID2284, AID2285, AID2420]; type: functional
[16] = target: T7, Kappa-type opioid receptor (Homo sapiens, UniProt P41145); assay: SAR analysis of small molecule antagonists of the kappa opioid receptor via a luminescent beta-arrestin assay - Set 4. [Related pubchem assays (depositor defined):AID1777, AID1778, AID1785, AID1786, AID1966, AID2133, AID2136, AID2285]; type: functional
[17] = target: Delta-type opioid receptor (Homo sapiens, UniProt P41143); assay: SAR Analysis of Antagonists of the DOR Receptor using an Image-Based Assay - Set 3. [Related pubchem assays (depositor defined):AID1777, AID1785]; type: functional;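 further: U2OS cells expressing DOR1 and beta-arrestin GFP stimulated with 100 nM SNC80; imaging of GFP-tagged beta-arrestin moving into spots after receptor activation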
[18] = target: T7, Kappa-type opioid receptor; assay: SAR analysis of Antagonists of the Kappa Opioid Receptor (KOR) using an Image-Based Assay - Set 4. [Related pubchem assays (depositor defined):AID1777, AID1785]; type: functional
[19] = target: T7, Kappa-type opioid receptor; assay: SAR analysis of small molecule antagonists of the kappa opioid receptor via a luminescent beta-arrestin assay - Set 3. [Related pubchem assays (depositor defined):AID1777, AID1778, AID1785, AID1786, AID1966, AID2133, AID2136, AID2285, AID2495]; type: functional
[20] = target: T7, Kappa-type opioid receptor; assay: SAR analysis of Antagonists of the Kappa Opioid Receptor (KOR) using an Image-Based Assay - Set 3. [Related pubchem assays (depositor defined):AID1777, AID1785]; type: functional

For `COCc1cc(C2C(C(=O)c3ccco3)=C(O)C(=O)N2CCOCCO)ccc1O` (configuration not stated), the EC50 (Hexokinase HKDC1 [1]) was > 80 µM (inactive) and the Ki (fMet-Leu-Phe receptor) was 29.7 µM (inactive).
In the case of `CCc1ccc(-c2nc(C(N)=O)c3nc(O)n(-c4ccccc4OC)c3n2)cc1`, the EC50 [2] is reported as 8.19 µM (active), the EC50 [3] is reported as 0.185 µM (active) and the IC50 (J774.A1) is reported as 12.5 µM (active).
With `CCCCn1nc(C(=O)N2CCN(S(=O)(=O)c3ccccc3)CC2)c2ccccc2c1=O` the EC50 (T-cell) was 10.3 µM (active).
With `O=C(Nc1ccccc1)C1=C[C@H](C2CCCCC2)C[C@H](OCc2ccc(CO)cc2)O1` the EC50 [4] was 2.99 µM (active).
For `CCN(CCO)Cc1csc2ccc(C(C)(C)C)cc12`, the IC50 [5] was > 79.4 µM (inactive), the IC50 [6] was > 79.4 µM (inactive) and the IC50 [7] was > 79.4 µM (inactive).
With `O=C(NCc1ccccn1)c1cc2c(ccc3ccccc32)oc1=O` the IC50 [8] was 1.33 µM (active) and the IC50 [9] was > 100 µM (inactive).
For `CC(C)(C)c1ccc(C(CC(=O)O)NC(=O)Cc2ccc(F)cc2)cc1` (configuration not stated), the IC50 [10] was > 20 µM (inactive).
For `COc1ccc(NC(=O)CSc2ccc(-c3ccco3)nn2)cc1OC`, the IC50 [11] was 73.8 µM (active), the IC50 [12] was > 100 µM (inactive) and the IC50 (Hexokinase HKDC1 [13]) was 13.6 µM (active).
For `Cc1ccc(C)c(N2CCN(C(=O)CN3C(S)=NC(C)(C)CC3C)CC2)c1` (configuration not stated), the EC50 (Troponin, cardiac muscle) was > 71.5 µM (inactive).
In the case of `Cc1ccc(-c2nnc(NC(=O)C(C)Oc3ccccc3)o2)cc1C` (configuration not stated), the EC50 [14] is reported as 2.6 µM (active).
In the case of `O=C(NCc1ccco1)Nc1ccc2nc(-c3ccco3)c(-c3ccco3)nc2c1`, the IC50 [15] is reported as > 50 µM (inactive).
For `Cc1ccc(S(=O)(=O)NCc2ccc(C(=O)NC3CCCN(Cc4ccccc4)C3)cc2)cc1` (configuration not stated), the IC50 (Mu-type opioid receptor) was 6.75 µM (active), the IC50 [16] was 18.6 µM (inactive) and the IC50 [17] was > 32 µM (inactive). For the same molecule, the IC50 [18] was > 32 µM (inactive).
With `O=C(NCCN(Cc1ccccc1)Cc1ccccc1)c1ccc(CNS(=O)(=O)c2ccc(Br)cc2)cc1` the IC50 (Mu-type opioid receptor) was > 32 µM (inactive), the IC50 [17] was > 32 µM (inactive) and the IC50 [19] was > 20 µM (inactive). The IC50 [20] was 6.08 µM (active).
